According to the supplement of paper PMC10307832:

Key:
Experiment in all cases: relative viability (nuclei count vs DMSO), 5 days (fraction); higher = more cells survive
[1] = compound: CN(c1ncccc1CNc1nc(Nc2ccc3c(c2)CC(=O)N3)ncc1C(F)(F)F)S(C)(=O)=O + Nc1nc2[nH]cc(CCc3ccc(C(=O)N[C@@H](CCC(=O)O)C(=O)O)cc3)c2c(=O)[nH]1 [Pemetrexed] (partner 0.2 µM)
Outline: (§1)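 Dosing by pin tool came one day after lung cancer cell lines were seeded in 1536-well plates, using either one drug or a fixed anchor-drug dose plus five library-drug doses (not always all listed) in √10 steps. After 5 days, nuclei were counted on 4× images. Relative viability is treated-well nuclei count divided by vehicle-well nuclei count, and values are medians of duplicate plates.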

[2] = compound: CN(c1ncccc1CNc1nc(Nc2ccc3c(c2)CC(=O)N3)ncc1C(F)(F)F)S(C)(=O)=O + Cc1nc(NC(=O)N2CCC[C@H]2C(N)=O)sc1-c1ccnc(C(C)(C)C(F)(F)F)c1 [Alpelisib] (partner 2 µM)
Outline: as §1

[3] = compound: CN(c1ncccc1CNc1nc(Nc2ccc3c(c2)CC(=O)N3)ncc1C(F)(F)F)S(C)(=O)=O + CC(C)C[C@H](NC(=O)[C@H](Cc1ccccc1)NC(=O)c1cnccn1)B(O)O [Bortezomib] (partner 0.002 µM)
Outline: as §1

[4] = compound: CN(c1ncccc1CNc1nc(Nc2ccc3c(c2)CC(=O)N3)ncc1C(F)(F)F)S(C)(=O)=O + O=C(c1cc(Cc2n[nH]c(=O)c3ccccc23)ccc1F)N1CCN(C(=O)C2CC2)CC1 [Olaparib] (partner 8 µM)
Outline: as §1

| Cell Line | relative viability ([1]; first compound 0.01 µM) | relative viability ([1]; first compound 0.03162 µM) | relative viability ([1]; first compound 0.1 µM) | relative viability ([1]; first compound 0.3162 µM) | relative viability ([1]; first compound 1 µM) | relative viability ([2]; first compound 0.01 µM) | relative viability ([2]; first compound 0.03162 µM) | relative viability ([2]; first compound 0.1 µM) | relative viability ([2]; first compound 0.3162 µM) | relative viability ([2]; first compound 1 µM) | relative viability ([3]; first compound 0.01 µM) | relative viability ([3]; first compound 0.03162 µM) | relative viability ([3]; first compound 0.1 µM) | relative viability ([3]; first compound 0.3162 µM) | relative viability ([3]; first compound 1 µM) | relative viability ([4]; first compound 0.01 µM) | relative viability ([4]; first compound 0.03162 µM) | relative viability ([4]; first compound 0.1 µM) | relative viability ([4]; first compound 0.3162 µM) | relative viability ([4]; first compound 1 µM) |
| --- | --- | --- | --- | --- | --- | --- | --- | --- | --- | --- | --- | --- | --- | --- | --- | --- | --- | --- | --- | --- |
| 201T | 0.336 | 0.333 | 0.383 | 0.34 | 0.316 | 1.01 | 0.989 | 0.971 | 0.968 | 0.976 | 1.1 | 1.09 | 1.04 | 1.01 | 1.08 | 0.827 | 0.887 | 0.814 | 0.776 | 0.779 |
| A549 |  |  |  |  |  | 0.754 | 0.905 | 0.726 | 0.906 | 0.712 |  |  |  |  |  | 0.29 | 0.367 | 0.352 | 0.464 | 0.373 |
| A-427 | 0.939 | 0.956 | 0.932 | 0.955 | 0.948 | 1.09 | 1.15 | 1.02 | 1.15 | 1.08 | 1.09 | 1.01 | 0.998 | 0.942 | 0.965 | 0.752 | 0.738 | 0.651 | 0.741 | 0.651 |
| ABC-1 |  |  |  |  |  | 0.777 | 1.22 | 1.36 | 0.963 | 0.913 | 0.308 | 0.273 | 0.396 | 0.376 | 0.329 | 0.813 | 1.08 | 1.42 | 0.893 | 1.06 |
| BEN | 0.771 | 0.753 | 0.777 | 0.809 | 0.671 | 1.02 | 1.2 | 1.02 | 1.05 | 1.03 | 0.821 | 0.772 | 0.993 | 0.865 | 0.856 | 0.961 | 1.27 | 1.26 | 1.18 | 1.1 |
| CAL-12T | 1.24 | 1.12 | 1.25 | 1.36 | 0.982 | 1.12 | 1.58 | 1.26 | 1.16 | 0.946 | 1.07 | 0.886 | 0.856 | 0.919 | 0.878 | 0.766 | 0.697 | 0.619 | 0.775 | 0.636 |
| COR-L23 | 0.202 | 0.18 | 0.211 | 0.205 | 0.203 | 0.742 | 0.846 | 0.713 | 0.647 | 0.702 | 0.967 | 1.01 | 1.05 | 0.951 | 0.894 | 0.382 | 0.344 | 0.33 | 0.305 | 0.278 |
| COR-L 105 | 1.09 | 1.06 | 1.07 | 1.11 | 1.05 | 1.06 | 1.16 | 1.13 | 0.887 | 0.872 | 0.889 | 0.733 | 0.835 | 0.814 | 0.595 | 0.794 | 0.709 | 0.728 | 0.645 | 0.522 |
| Calu-6 |  |  |  |  |  | 0.914 | 0.977 | 0.903 | 1.55 | 0.765 | 1.04 | 1.01 | 1.02 | 0.958 | 0.874 | 0.581 | 0.581 | 0.535 | 0.498 | 0.453 |
| ChaGo-K-1 | 0.252 | 0.254 | 0.264 | 0.258 | 0.246 |  |  |  |  |  | 1.01 | 0.803 | 1.11 |  | 1.09 | 0.453 | 0.397 | 0.4 | 0.401 | 0.355 |
| EBC-1 |  |  |  |  |  | 0.869 | 0.885 | 0.877 | 0.948 | 0.654 | 0.596 | 0.5 | 0.56 | 0.585 | 0.499 | 0.71 | 0.649 | 0.706 | 0.634 | 0.58 |
| EKVX | 0.436 | 0.413 | 0.347 | 0.401 | 0.382 | 0.771 | 0.905 | 0.859 | 0.812 | 0.864 | 1.02 | 1.19 | 1.11 | 0.923 | 0.83 | 0.833 | 0.796 | 0.798 | 0.772 | 0.676 |
| EMC-BAC-2 | 0.427 | 0.471 | 0.433 | 0.472 | 0.45 | 0.761 | 0.811 | 0.68 | 0.698 | 0.676 | 1.08 | 1.1 | 1 | 1.06 | 1.08 | 0.508 | 0.495 | 0.488 | 0.464 | 0.464 |
| EPLC-272H | 0.332 | 0.349 | 0.375 | 0.345 | 0.313 | 0.811 | 1.1 | 0.781 | 0.885 | 0.927 | 0.972 | 0.774 | 0.854 | 0.944 | 0.758 | 0.699 | 0.544 | 0.821 | 0.871 | 0.506 |
| H3255 | 0.647 | 0.585 | 0.541 | 0.614 | 0.549 | 1.04 | 0.853 | 0.617 | 0.468 | 0.772 | 0.758 | 0.783 | 0.819 | 0.505 | 0.784 | 0.623 | 0.611 | 0.554 | 0.547 | 0.445 |
